These results are taken from PubChem BioAssay AID248 (DTP/NCI, 2004).

This test deals with L1210 leukemia ip in BDF1 mice, survival T/C. The experiment in a line: NCI In Vivo Anticancer Drug Screen. Data for tumor model L1210 Leukemia (intraperitoneal) in B6D2F1 (BDF1) mice. The conditions noted are these: endpoint: mean survival time, higher = longer survival. Put shortly:
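Transplanted-tumor mice were given test agent; controls received vehicle only. Survival readings from the two groups were divided (treated over control).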

Setting [1] is: dose: 100.0 mg/kg/injection, schedule: Q01DX009 (ip), vehicle: Klucel (hydroxypropylcellulose) (HPC).
[2] abbreviates: dose: 100.0 mg/kg/injection, schedule: Q04DX003 (ip), vehicle: Klucel (hydroxypropylcellulose) (HPC).
The mark [3] stands for this setting: dose: 200.0 mg/kg/injection, schedule: Q01DX009 (ip), vehicle: Klucel (hydroxypropylcellulose) (HPC).
The mark [4] stands for this setting: dose: 200.0 mg/kg/injection, schedule: Q04DX003 (ip), vehicle: Klucel (hydroxypropylcellulose) (HPC).
[5] abbreviates: dose: 400.0 mg/kg/injection, schedule: Q04DX003 (ip), vehicle: Klucel (hydroxypropylcellulose) (HPC).
Setting [6] is: dose: 100.0 mg/kg/injection, schedule: Q01DX009 (ip), vehicle: saline.
[7] abbreviates: dose: 100.0 mg/kg/injection, schedule: Q04DX003 (ip), vehicle: saline.
[8] abbreviates: dose: 200.0 mg/kg/injection, schedule: Q01DX009 (ip), vehicle: saline.
[9] abbreviates: dose: 200.0 mg/kg/injection, schedule: Q04DX003 (ip), vehicle: saline.
Where [10] appears, read: dose: 400.0 mg/kg/injection, schedule: Q01DX009 (ip), vehicle: saline.
Setting [11] is: dose: 400.0 mg/kg/injection, schedule: Q04DX003 (ip), vehicle: saline.
Where [12] appears, read: dose: 100.0 mg/kg/injection, schedule: Q01DX009 (ip), vehicle: saline with Tween-80.
The mark [13] stands for this setting: dose: 200.0 mg/kg/injection, schedule: Q01DX009 (ip), vehicle: saline with Tween-80.
[14] abbreviates: dose: 400.0 mg/kg/injection, schedule: Q01DX009 (ip), vehicle: saline with Tween-80.
The mark [15] stands for this setting: dose: 100.0 mg/kg/injection, schedule: Q04DX002 (ip), vehicle: Klucel (hydroxypropylcellulose) (HPC).
[16] abbreviates: dose: 100.0 mg/kg/injection, schedule: Q04DX003 (ip), vehicle: saline with Tween-80.
The mark [17] stands for this setting: dose: 200.0 mg/kg/injection, schedule: Q04DX003 (ip), vehicle: saline with Tween-80.
Where [18] appears, read: dose: 400.0 mg/kg/injection, schedule: Q04DX003 (ip), vehicle: saline with Tween-80.
Where [19] appears, read: dose: 100.0 mg/kg/injection, schedule: Q01DX001 (ip), vehicle: carboxymethylcellulose (CMC).
[20] abbreviates: dose: 200.0 mg/kg/injection, schedule: Q01DX001 (ip), vehicle: carboxymethylcellulose (CMC).
[21] abbreviates: dose: 400.0 mg/kg/injection, schedule: Q01DX001 (ip), vehicle: carboxymethylcellulose (CMC).

Where “and” joins values, the source holds several entries; their conditions need not be identical. Identical values can stand only once. Toxic doses and inconclusive results are not listed.

With `O=C(CS)OCCOC(=O)CS`, the T/C runs as follows: (dose: 50.0 mg/kg/injection, schedule: Q04DX003 (ip), vehicle: Klucel (hydroxypropylcellulose) (HPC)) 105 % of control; under setting [1], 92 % of control; under setting [2], 101 % of control; under setting [3], 87 % of control; under setting [4], 106 % of control; under setting [5], 86 % of control.

As for `N#CCC(=O)c1ccccc1`, the T/C (dose: 12.5 mg/kg/injection, schedule: Q01DX009 (ip), vehicle: Klucel (hydroxypropylcellulose) (HPC)) is 113 % of control; the T/C (dose: 18.75 mg/kg/injection, schedule: Q04DX003 (ip), vehicle: gum acacia) is 106 % of control; the T/C (dose: 25.0 mg/kg/injection, schedule: Q01DX009 (ip), vehicle: Klucel (hydroxypropylcellulose) (HPC)) was 102 % of control; the T/C (dose: 37.5 mg/kg/injection, schedule: Q04DX003 (ip), vehicle: gum acacia) was 108 % of control; the T/C (dose: 50.0 mg/kg/injection, schedule: Q01DX009 (ip), vehicle: Klucel (hydroxypropylcellulose) (HPC)) is 104 % of control.

For `COc1ccc(/C=C2\CCC3C(CCCC34OCCO4)C2=O)cc1` (configuration not stated), the T/C by setting is: under setting [6], 88 % of control; under setting [7], 101 % of control; under setting [8], 101 % of control; under setting [9], 97 % of control; under setting [10], 104 % of control; under setting [11], 99 % of control.

Regarding `COC(=O)C1C2C=CC(C2)C1C(=O)O` (configuration not stated), the T/C by setting is: under setting [1], 103 % of control; under setting [12], 92 % of control; under setting [2], 98 % of control; under setting [3], 92 % of control; under setting [13], 86 % of control; under setting [4], 97 % of control. For the same compound, the T/C (dose: 400.0 mg/kg/injection, schedule: Q01DX009 (ip), vehicle: Klucel (hydroxypropylcellulose) (HPC)) is 88 % of control; the T/C under setting [14] is 87 % of control; the T/C under setting [5] is 97 % of control.

Take `COC(=O)c1[nH]cnc1/N=N/Nc1ccc(Cl)cc1`: the T/C (dose: 50.0 mg/kg/injection, schedule: Q01DX001 (ip), vehicle: other) was 103 % of control; the T/C (dose: 100.0 mg/kg/injection, schedule: Q01DX001 (ip), vehicle: other) was 105 % of control; the T/C (dose: 200.0 mg/kg/injection, schedule: Q01DX001 (ip), vehicle: other) is 105 % of control; the T/C (dose: 400.0 mg/kg/injection, schedule: Q01DX001 (ip), vehicle: other) was 94 % of control.

On to `NC(=O)Nc1ccc(SCC(=O)O)cc1`, for which the T/C under setting [15] was 106 % of control; the T/C (dose: 200.0 mg/kg/injection, schedule: Q04DX002 (ip), vehicle: Klucel (hydroxypropylcellulose) (HPC)) is 95 % of control; the T/C (dose: 400.0 mg/kg/injection, schedule: Q04DX002 (ip), vehicle: Klucel (hydroxypropylcellulose) (HPC)) is 113 % of control.

Turning to `O=C(C1C(c2ccccc2)C1c1ccccc1)N(CCCl)Cc1ccccc1` (configuration not stated), the T/C was 97 % of control (dose: 25.0 mg/kg/injection, schedule: Q04DX002 (ip), vehicle: Klucel (hydroxypropylcellulose) (HPC)); 87 % of control (dose: 50.0 mg/kg/injection, schedule: Q04DX002 (ip), vehicle: Klucel (hydroxypropylcellulose) (HPC)); 100 % of control under setting [15].

In the case of `CC(=O)OC1CCC2(C)C(CCC3C2CCC2(C)C3CCC2C(C)(C)O)C1` (configuration not stated), the T/C is 99 % of control (dose: 100.0 mg/kg/injection, schedule: Q04DX002 (ip), vehicle: DMSO); 92 % of control (dose: 200.0 mg/kg/injection, schedule: Q04DX002 (ip), vehicle: DMSO); 92 % of control (dose: 400.0 mg/kg/injection, schedule: Q04DX002 (ip), vehicle: DMSO).

`NC(=S)c1ccncc1`: the T/C under setting [12] was 104 % of control; the T/C under setting [16] was 103 % of control; the T/C under setting [13] is 104 % of control; the T/C under setting [17] is 109 % of control; the T/C under setting [14] was 112 % of control; the T/C under setting [18] was 101 % of control.

For `NC(=O)C(c1ccccc1)N1CCOCC1` (configuration not stated), the T/C (dose: 50.0 mg/kg/injection, schedule: Q04DX003 (ip), vehicle: saline) is 106 % of control; the T/C under setting [7] was 102 % of control; the T/C under setting [9] was 104 % of control; the T/C under setting [11] is 102 % of control.

In the case of `O=S(=O)(c1ccc(Cl)cc1)N1CCN(S(=O)(=O)c2ccc(Cl)cc2)C1`, the T/C by setting is: under setting [6], 97 % of control; under setting [7], 95 % of control; under setting [8], 94 % of control; under setting [9], 92 % of control; under setting [10], 92 % of control; under setting [11], 103 % of control.

In the case of `O=C(O)C1CCC[N-]C1.O=C(O)C1CCC[N-]C1.[Cl][Pt+2][Cl]` (configuration not stated), the T/C runs as follows: (dose: 5.0 mg/kg/injection, schedule: Q01DX009 (ip), vehicle: saline with Tween-80) 95 % of control; (dose: 10.0 mg/kg/injection, schedule: Q01DX009 (ip), vehicle: saline with Tween-80) 103 % of control; (dose: 20.0 mg/kg/injection, schedule: Q01DX009 (ip), vehicle: saline with Tween-80) 106 % of control.

In the case of `N/C=N/O`, the T/C is, setting by setting: (dose: 12.5 mg/kg/injection, schedule: Q01DX009 (ip), vehicle: saline) 105 % of control; (dose: 25.0 mg/kg/injection, schedule: Q01DX009 (ip), vehicle: saline) 105 % of control; (dose: 50.0 mg/kg/injection, schedule: Q01DX009 (ip), vehicle: saline) 111 % of control; under setting [6], 111 % of control; under setting [7], 101 % of control; under setting [8], 121 % of control. Further, the T/C reads like this: under setting [9], 111 % of control; under setting [10], 158 % of control; under setting [11], 97 % of control.

Consider `C1CSC2(CCC(C3CCC4(CC3)SCCS4)CC2)S1` (configuration not stated), for which the T/C is 92 % of control (dose: 75.0 mg/kg/injection, schedule: Q01DX009 (ip), vehicle: saline); 88 % of control (dose: 100.0 mg/kg/injection, schedule: Q01DX001 (ip), vehicle: saline); 97 % of control (dose: 150.0 mg/kg/injection, schedule: Q01DX009 (ip), vehicle: saline); 91 % of control (dose: 200.0 mg/kg/injection, schedule: Q01DX001 (ip), vehicle: saline); 87 % of control (dose: 300.0 mg/kg/injection, schedule: Q01DX009 (ip), vehicle: saline); 93 % of control (dose: 400.0 mg/kg/injection, schedule: Q01DX001 (ip), vehicle: saline).

As to `CN(CC(=O)C(C#N)c1ccccc1)c1ccccc1` (configuration not stated), the T/C is, setting by setting: (dose: 50.0 mg/kg/injection, schedule: Q01DX001 (ip), vehicle: carboxymethylcellulose (CMC)) 98 % of control; under setting [19], 93 % of control; under setting [20], 91 % of control; under setting [21], 98 % of control.

`ClC(c1ccccc1)C1(Br)C=c2ccccc2=C1` (configuration not stated): the T/C reads like this: under setting [1], 97 % of control; under setting [3], 97 % of control; under setting [4], 105 % of control and 91 % of control; under setting [5], 94 % of control and 103 % of control.

As to `O=C(NCc1ccccc1)C1C2CC3OC(=O)C1C3C2` (configuration not stated), the T/C under setting [16] was 98 % of control; the T/C under setting [7] is 123 % of control; the T/C under setting [17] is 95 % of control; the T/C under setting [9] is 104 % of control; the T/C under setting [18] is 95 % of control; the T/C under setting [11] is 104 % of control.

As for `Cc1cccc(N=C2C(=O)NC(=O)NC2=O)c1`, the T/C is, setting by setting: (dose: 100.0 mg/kg/injection, schedule: Q01DX Z (ip), vehicle: methylcellulose (MC)) 103 % of control; (dose: 200.0 mg/kg/injection, schedule: Q01DX Z (ip), vehicle: methylcellulose (MC)) 106 % of control.

With `O=C1NNC(c2ccccc2)C1c1ccccc1` (configuration not stated), the T/C runs as follows: under setting [19], 93 % of control; under setting [20], 95 % of control; under setting [21], 97 % of control.
